Experimental data from patent US5443986A, “Enzymatic analysis using substrates that yield fluorescent precipitates” (Molecular Probes, Inc., priority 1993, dated 1995).

Tests used:
alkaline phosphatase [1] = molecular target: T1, alkaline phosphatase (Bos taurus, UniProt P19111); format: biochemical; set-up: mature GPI-type homodimer; details: 0.1M TRIS pH 10.3, 50 mM NaCl, 10 mM MgCl2, 0.1 mM ZnCl2; double-reciprocal plot
Method: As compared with other synthetic substrates, the fluorogenic precipitating substrates described in this invention normally have high enzymatic turnover rates and moderate affinities for the enzymes. Turnover rates of the substrates can be determined as in Example 10 and expressed as micromoles of product per minute per milligram protein (k2, in units of μmol·min^-1 ·mg^-1). The affinity of the substrate is determined by its dissociation constant, KM, in millimolar units. The enzymes can bind to and catalyze conversion of the soluble substrates into detectable reaction products that are apparently less soluble and will precipitate in aqueous solutions. The preferred detectable reaction products are fluorescent precipitates. The precipitation, however, and thus fluorescence, depends on the reaction product concentration or the initial substrate concentration used, as well as the ionization state of the product's phenol group. There are two parameters determining the precipitation, i.e. critical concentration (Mc) and pH dependence (pKa). A method for determination of these parameters is given in Example 11. Table 10 gives the relevant parameters for the enzymatic reaction and precipitation of quinazolinone-based alkaline phosphatase substrates.
4). Kinetic assay of some of the substrates. The specific activity (k2, in a unit of micromole per minute per milligram protein) and Michaelis constant (KM, in a unit of millimole) for hydrolysis of the substrates by the enzyme are listed in Table 10. All of the specific enzymatic reactions are made in the following buffers:
For alkaline phosphatase: 0.1M TRIS pH 10.3 containing 50 mM NaCl, 10 mM MgCl2 and 0.1 mM ZnCl2.
Because the kinetic assay involves variable amounts of precipitate with variable light scattering, measurement in the fluorometer as described above cannot be used here. Instead, a fluorescence plate reader with front-face measurement geometry such as the CytoFluor™ 2300 (Millipore, Bedford, Mass.) is preferred for quantitating the precipitate. The following protocol illustrates the kinetic assay.
4.1 ). In a 96-well plate, pipette 200 μL of a phosphatase substrate in the alkaline phosphatase reaction buffer with a final concentration of 2 to 6 mM, then add 50 μL 1 mg/mL alkaline phosphatase. […] Fluorescence of the precipitate is measured in the CytoFluor with appropriate sensitivity and excitation and emission settings as have been determined with the fluorometer. The fluorescence signal versus the amount of the precipitate is then established for each substrate.
4.2). […] Read the fluorescence of the resulting precipitate after 10 minutes reaction time and calculate the precipitate formation rate per minute by use of the determined fluorescence signal versus the amount of the precipitate. […]

[2] = molecular target: Alkaline phosphatase conjugated goat anti-rabbit antibodies (Bos taurus, UniProt P19111); experiment: Western blot immunodetection of subunit II of bovine heart cytochrome c oxidase with a phosphatase substrate; format: biochemical
Method: 1.1. Cytochrome c oxidase from the bovine heart mitochondrial inner membrane is highly purified according to the method of Capaldi and Hayashi, FEBS LETT 26, 4229-4238 (1972).
1.2. 50 μl of pure cytochrome c oxidase (20 mg/ml) is dissolved in a dissociation buffer to a final concentration of 1 mg/ml for electrophoresis.
1.3. An 18% acrylamide gel containing 6M urea, 0.1% SDS is used for gel electrophoresis according to a procedure published by Zhang, Lindorfer and Capaldi, BIOCHEMISTRY, 27, 1389-1394 (1988). 15 μg of protein is loaded onto each lane. The subunits of cytochrome c oxidase are separated during electrophoresis (there are 13 different subunits in bovine cytochrome c oxidase).
2.3. Protein samples in both B and C, resolved in SDS-gel electrophoresis, are semi-dry transferred onto a nitrocellulose membrane following a standard electrophoretic elution procedure published by Harlow and Lane, ANTIBODIES, A LABORATORY MANUAL, Cold Spring Harbor Lab (1988).
3.1. The nitrocellulose membrane is incubated with a polyclonal antibody that is specific for Subunit II of Cytochrome C oxidase (final antibody concentration: 20 μg/ml) at room temperature for 12 hours with agitation.
3.2. The membrane is incubated with the enzyme-labeled secondary antibody at room temperature for 1 hour with agitation. Alkaline phosphatase conjugated goat anti-rabbit antibodies are used with 1:3000 dilution in TTBS buffer containing 1% nonfat milk.
3.4. Membrane B is incubated in the phosphatase substrate BCIP/NBT (BioRad), while C is incubated with the fluorogenic, phosphatase substrate 1e.

[3] = Critical concentration (Mc) for precipitation of the enzymatic product; format: physicochemical; details: product of hydrolysis by excess alkaline phosphatase, 0.1M TRIS pH 10.3
Method: 2D) Critical concentration: Various concentrations of 2-(4'-methoxy-2'-phosphoryloxyphenyl)quinazolinone (3e) were reacted with 50 μL of excess alkaline phosphatase in 200 μL solution of 0.1M TRIS≥pH 10.3 containing 50 mM NaCl, 10 mM MgCl2 and 0.1 mM ZnCl2. The resulting precipitate and fluorescence were measured in a CytoFluor fluorescence plate reader (Millipore) with excitation at 360 nm, emission at 460 nm using sensitivity setting 3.
3). Determination of the critical concentration and pH dependence for the precipitation. The critical concentration (Mc, in units of mmoles) and the pH dependence (pKa) for precipitation are both important parameters for judging the precipitation properties of the enzymatic products obtained from the subject substrates. Below the critical concentration the product will not be detected as a fluorescent precipitate. Obviously these two parameters contribute to the precipitation in a correlated way. As a simple approach, one may define the critical concentration as the concentration necessary for the precipitation at a high pH where all of the phenol group is ionized. Similarly, acidification by lowering the pH results in precipitation at a concentration below the critical concentration that is obtained at high pH to an extent that is related to the pKa of the phenolic group. It is a characteristic of the preferred substrates that only the product precipitate is fluorescent. In this case the precipitate is quantitated by its fluorescence which results in a correlation of the fluorescence with the degree of precipitation.
To obtain the critical concentration for one product the phosphatase substrate (1e) (200 μL) in a 96-well plate is added to 0.1M TRIS, pH 10.3, containing 50 mM NaCl, 10 mM MgCl2 and 0.1 mM ZnCl2 to yield a final concentration of 0.1 to 10 mM. 50 μL of a 1 mg/mL solution of alkaline phosphatase is then added. The fluorescence development is complete after 5 minutes as measured in using a CytoFluor™ 2300 fluorescence plate reader (Millipore, Bedford, Mass.). A concentration showing appreciable fluorescence is determined as the critical concentration.

alkaline phosphatase [4] = molecular target: T1, alkaline phosphatase; experiment: Fluorescence and light scattering on hydrolysis of the substrate (FIG. 2B, 2C); format: biochemical; set-up: mature GPI-type homodimer; details: 10 μg/mL alkaline phosphatase, 20 seconds
Method: 2B) Coexistence of fluorescence and precipitation: 5 mM 2-(4'-methoxy-2'-phosphoryloxyphenyl)quinazolinone (3e), in 0.1M TRIS pH 10.3 containing 50 mM NaCl, 10 mM MgCl2 and 0.1 mM ZnCl2, yields 210 units of fluorescence by action of 10 μg/mL alkaline phosphatase in 20 seconds. The fluorescence can be eliminated by addition of 0.6% Triton X-100 as a result of precipitate dissolution.
2C) Light-scattering increase as a result of precipitation: 2 mM 2-(4'-methoxy-2'-phosphoryloxyphenyl)quinazolinone (3e) scattering increases from 450 units to beyond the detection limit of 1000 units in 20 seconds by action of 10 μg/mL alkaline phosphatase, showing rapid formation of a precipitate. The enzymatic reaction was in 0.1M TRIS pH 10.3 containing 50 mM NaCl, 10 mM MgCl2 and 0.1 mM ZnCl2. The scattering measurement was made in a Perkin-Elmer LS-50 fluorometer with 5 nm slits and a coincident excitation and emission wavelength of 420 nm.

[5] = molecular target: β-glucuronidase from E. coli (Escherichia coli, UniProt P05804); experiment: Detection of enzymatic activity in chromatographic fractions, glucuronidase peak; format: biochemical; details: 5 μL of 5 mg/mL substrate added to 25 μL fraction, pH 7.0
Method: (§1) β-galactosidase from E. coli (MW 540,000, approximately 1 mg) and β-glucuronidase from E. coli (MW 280,000, approximately 1 mg) are dissolved in 25 μL of 0.1M phosphate, pH 7,0 containing 0.11M 2-mercaptoethanol and 1 mM MgCl2 and chromatographed on a 1×35 cm column of BioGel A 1.5M equilibrated with the same buffer. Detection of the protein absorption at 280 nm is used to detect isolated protein fractions. […] To 25 μL aliquots of each fraction, is separately added 5 μL of a 5 mg/mL aqueous solution of 2-(5'-methoxy-2'-galactopyranosyl)phenyl-4-(3H)-quinazolone (3h) or 2-(2-O-β-D-glucopyranosiduronic acid)-4-(3H)-quinazolone (4h).

[6] = molecular target: β-galactosidase from E. coli (Escherichia coli, UniProt P00722); experiment: Detection of enzymatic activity in chromatographic fractions, galactosidase peak; format: biochemical; details: 5 μL of 5 mg/mL substrate added to 25 μL fraction, pH 7.0
Method: as §1

T1 sequence (P19111 20-506): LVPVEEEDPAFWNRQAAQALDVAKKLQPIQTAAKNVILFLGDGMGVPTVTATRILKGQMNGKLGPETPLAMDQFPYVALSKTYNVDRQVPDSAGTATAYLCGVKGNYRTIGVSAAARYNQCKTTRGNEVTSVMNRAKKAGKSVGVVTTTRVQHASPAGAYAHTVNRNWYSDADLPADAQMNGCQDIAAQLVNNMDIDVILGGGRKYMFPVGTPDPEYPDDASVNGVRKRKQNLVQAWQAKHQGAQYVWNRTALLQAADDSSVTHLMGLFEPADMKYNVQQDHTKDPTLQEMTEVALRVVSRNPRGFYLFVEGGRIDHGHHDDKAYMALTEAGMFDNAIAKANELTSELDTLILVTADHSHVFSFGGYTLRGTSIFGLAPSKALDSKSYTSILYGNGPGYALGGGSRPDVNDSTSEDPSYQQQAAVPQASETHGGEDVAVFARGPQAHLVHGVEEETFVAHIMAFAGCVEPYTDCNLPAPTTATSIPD
Alkaline phosphatase conjugated goat anti-rabbit antibodies, sequence (P19111 20-506 limits assumed): as the sequence (P19111 20-506) above
β-glucuronidase from E. coli, sequence (P05804 whole entry): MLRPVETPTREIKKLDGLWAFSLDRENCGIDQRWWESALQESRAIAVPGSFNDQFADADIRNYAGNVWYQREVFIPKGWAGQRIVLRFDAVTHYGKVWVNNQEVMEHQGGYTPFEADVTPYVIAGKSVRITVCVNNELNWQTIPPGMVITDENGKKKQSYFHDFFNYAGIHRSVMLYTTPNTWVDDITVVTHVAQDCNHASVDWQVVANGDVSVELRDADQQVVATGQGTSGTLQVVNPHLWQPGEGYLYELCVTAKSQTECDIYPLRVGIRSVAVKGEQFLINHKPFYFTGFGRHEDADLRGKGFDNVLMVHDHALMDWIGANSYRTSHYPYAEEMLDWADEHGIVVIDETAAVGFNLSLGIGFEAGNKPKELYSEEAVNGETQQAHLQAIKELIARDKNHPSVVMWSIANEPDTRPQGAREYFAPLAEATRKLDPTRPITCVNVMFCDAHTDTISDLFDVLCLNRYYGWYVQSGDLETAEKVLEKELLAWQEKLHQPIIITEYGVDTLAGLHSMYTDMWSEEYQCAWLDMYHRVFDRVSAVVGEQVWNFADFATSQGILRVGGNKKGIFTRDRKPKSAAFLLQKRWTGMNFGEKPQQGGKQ
β-galactosidase from E. coli, sequence (P00722 2-1024): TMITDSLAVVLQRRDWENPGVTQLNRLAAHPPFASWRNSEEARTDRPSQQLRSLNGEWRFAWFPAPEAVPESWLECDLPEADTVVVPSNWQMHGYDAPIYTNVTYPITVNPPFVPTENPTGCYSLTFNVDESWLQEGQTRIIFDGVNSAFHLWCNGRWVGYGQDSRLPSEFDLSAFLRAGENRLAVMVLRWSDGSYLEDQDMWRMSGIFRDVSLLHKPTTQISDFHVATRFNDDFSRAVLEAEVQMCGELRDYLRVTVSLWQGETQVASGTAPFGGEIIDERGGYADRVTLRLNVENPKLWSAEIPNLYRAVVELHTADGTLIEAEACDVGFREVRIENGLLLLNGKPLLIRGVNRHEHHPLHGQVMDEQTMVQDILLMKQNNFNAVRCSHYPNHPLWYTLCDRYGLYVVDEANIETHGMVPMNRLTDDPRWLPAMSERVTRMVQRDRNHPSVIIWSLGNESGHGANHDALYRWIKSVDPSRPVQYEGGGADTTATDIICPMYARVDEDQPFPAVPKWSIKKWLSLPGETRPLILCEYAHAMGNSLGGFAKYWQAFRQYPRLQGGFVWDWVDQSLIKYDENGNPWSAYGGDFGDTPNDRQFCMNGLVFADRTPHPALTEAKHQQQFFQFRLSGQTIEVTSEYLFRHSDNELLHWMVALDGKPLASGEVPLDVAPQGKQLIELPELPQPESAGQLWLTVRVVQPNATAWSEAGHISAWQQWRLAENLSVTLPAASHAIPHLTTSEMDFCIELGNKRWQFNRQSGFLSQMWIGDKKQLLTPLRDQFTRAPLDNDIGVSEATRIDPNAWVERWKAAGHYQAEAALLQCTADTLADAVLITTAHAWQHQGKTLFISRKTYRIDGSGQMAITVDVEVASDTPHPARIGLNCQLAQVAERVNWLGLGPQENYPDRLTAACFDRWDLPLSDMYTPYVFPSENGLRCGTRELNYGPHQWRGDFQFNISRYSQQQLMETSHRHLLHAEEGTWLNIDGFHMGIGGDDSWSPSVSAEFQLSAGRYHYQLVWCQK

Row | Structure (SMILES) | k2 (specific activity, turnover rate) (alkaline phosphatase [1]) | Mc (critical concentration for precipitation) [3] | further results
1 | O=c1[nH]c(-c2ccccc2OP(=O)(O)O)nc2ccccc12 [1e, 2-phenyl] | 188.81 µmol/min/mg | 1.5 mM | persistence of the stain on the membrane ([2]; membrane kept in a dry Petri dish): still fluorescent after 3 days; incubation time after which the immunoreactive band is visualized ([2]; nitrocellulose membrane): 30 min; staining of other transferred bands ([2]; nitrocellulose membrane): No other transferred bands are stained
2 | COc1cc(OC)c(OP(=O)(O)O)c(-c2nc3ccccc3c(=O)[nH]2)c1 [2-(3',5'-dimethoxyphenyl)] | 215.60 µmol/min/mg | 0.3 mM | –
3 | COc1ccc(OP(=O)(O)O)c(-c2nc3ccccc3c(=O)[nH]2)c1 [2e, 2-(5'-methoxyphenyl)] | – | 0.8 mM | –
4 | COc1ccc(-c2nc3ccccc3c(=O)[nH]2)c(OP(=O)(O)O)c1 [3e, 2-(4'-methoxy-2'-phosphoryloxyphenyl)quinazolinone] | – | 2.5 mM | light scattering after action of alkaline phosphatase (alkaline phosphatase [4]; 2 mM substrate, starts at 450 units, detection limit 1000 units, 420 nm): > 1000 units; fluorescence yielded by action of alkaline phosphatase (alkaline phosphatase [4]; 5 mM substrate, 0.1M TRIS pH 10.3): 210 units
5 | COc1ccc(O[C@@H]2O[C@H](CO)[C@H](O)[C@H](O)[C@H]2O)c(-c2nc3ccccc3c(=O)[nH]2)c1 [3h, 2-(5'-methoxy-2'-galactopyranosyl)phenyl-4-(3H)-quinazolone] | – | – | fluorescent precipitate formation in fractions of the second peak (β-glucuronidase) [5]: No cross reactivity is observed; fluorescent precipitate formation in fractions of the first peak (β-galactosidase) [6]: Visible yellow fluorescent precipitate formation occurs
6 | O=C(O)[C@H]1O[C@@H](Oc2ccccc2-c2nc3ccccc3c(=O)[nH]2)[C@H](O)[C@@H](O)[C@@H]1O [4h, 2-(2-O-β-D-glucopyranosiduronic acid)-4-(3H)-quinazolone] | – | – | fluorescent precipitate formation in fractions of the second peak (β-glucuronidase) [5]: visible formation of a green fluorescent precipitate occurs; fluorescent precipitate formation in fractions of the first peak (β-galactosidase) [6]: No cross reactivity is observed
7 | COc1ccc(OP(=O)(O)O)c(-c2nc3ccc(Cl)cc3c(=O)[nH]2)c1 [5e, 2-(5'-methoxyphenyl)-6-chloro] | – | 1.2 mM | –
8 | O=c1[nH]c(-c2ccccc2OP(=O)(O)O)nc2ccc([N+](=O)[O-])cc12 [6e, 2-phenyl-6-nitro] | 150.66 µmol/min/mg | 1.2 mM | –
9 | O=c1[nH]c(-c2cc(Cl)ccc2OP(=O)(O)O)nc2ccccc12 [9e, 2-(5'-chlorophenyl)] | – | 0.4 mM | –
